Results as given in patent publication US20250228865A1, “COMPOUNDS FOR ENHANCING READ THROUGH OF GENES CONTAINING PREMATURE TERMINATION CODONS AND METHODS FOR MAKING AND USING THE SAME” (Sanofi US Services Inc., priority 2022, published 2025).

Legend:
[1] = tested on: recombinant human CFTR carrying the premature stop codon (PTC) mutation G542X; experiment: CFTR-PTC mutant translation readthrough, Nanoluc tagged CFTR luminescence (G542X cell line); assay type: cell-based; conditions: in combination with G418, G542X cell line; for CFTR G542X ACTIVITY Fold 10 μM G-418: fold over 10 μM G-418; for EC50: 16HBE cells
Description: (§1) 16HBE human bronchial epithelial cells (stably over-expressing recombinant human CFTR carrying the premature stop codon (PTC) mutation G542X or R1162X along with a Nanoluc tag incorporated into the CFTR channel within extracellular loop 4 in G542X cell line or C-terminus end in the R1162X cell line were seeded at 0.01×10^6 cells/well and grown in Minimal Essential Medium (MEM) as monolayers in 384 well plates and incubated at 37° C. with 5% CO2. Media was changed every other day until day of experiment. Agents to be evaluated were made up in separate 384 well, polypropylene plates at a 2X the final desired test concentration. Test agent 10-point concentration response curves were constructed using the Labcyte Echo 555 acoustic dispenser. Test agents were typically tested at a max final test concentrations of 50 μM with sequential 2-fold lower concentrations below this in the absence or presence of a fixed 10 μM concentration of the aminoglycoside G418 made up in MEM growth media (reduced Serum Media+HEPES Buffer+2.4 g/L Sodium Bicarbonate+L-Glutamine containing CFTR corrector VX-809 (3 μM)). Treatment with 10 μM G418 alone produced approximately 10% of the response observed with a maximally effective concentration of G418 (typically 125-250 μM). Test agent effects in presence of 10 μM G418 were compared to control wells on the plate containing a maximally effective concentration of G418 (typically 125-250 μM) made up in the same media. 25 ul of test agents/control solutions were transferred from the compound plate to the cell plate, which already contained 25 ul/well of cell plating media, using an Integra Viaflo 384. Cell plates were incubated with the compounds for 48 hours, at which time they were processed using Nanoluc luminescence Kit (Promega Nano-Glo Live Cell Assay System) to measure CFTR-PTC mutant translation readthrough. Luminescence was measured as follows. Cell plates were removed from the incubator and allowed to equilibrate to room temperature for 20 minutes. Media was removed from all wells and the plates were blotted to remove excess remaining volume. Nano-Glo Live Cell Substrate was diluted 1:20 in the appropriate amount of Nano-Glo LCS Dilution Buffer to accommodate the number of cell plates being tested. The substrate/dilution buffer mix was then diluted 1:3 with MEM media to make the appropriate volume for the number of plates being tested. The substrate/dilution buffer/OptiMEM mix was added across the Nanoluc testing cell plates and the plates were read for luminescence signal immediately. Test agent effects on CFTR translation readthrough was determined by normalizing any observed increase in luminescence induced by 48 hours pretreatment with test compound to the magnitude of luminescence increase produced by pretreatment with a maximally effective concentration of the reference readthrough enhancing agent G418 (125-250 μM).

[2] = tested on: recombinant human CFTR carrying the premature stop codon (PTC) mutation R1162X; experiment: CFTR-PTC mutant translation readthrough, Nanoluc tagged CFTR luminescence (R1162X cell line); assay type: cell-based; conditions: for CFTR R1162X ACTIVITY Fold 10 μM G-418: fold over 10 μM G-418, in combination with G418; for EC50: in combination with G418, 16HBE cells, read-out: CFTR R1162X ACTIVITY EC50
Description: as §1

SMILES	CFTR G542X ACTIVITY Fold 10 μM G-418 [1]	EC50 [1] [nM]	CFTR R1162X ACTIVITY Fold 10 μM G-418 [2]	EC50 [2] [nM]
OCCn1cnc(Nc2ccc(OCc3c(Cl)cccc3Cl)cn2)n1	A′ (A′ = ≥10X)	1000 to 10000	A′ (A′ = ≥10X)	1000 to 10000
O=C1OC(CO)CN1c1ccc(OCc2c(Cl)ccc(F)c2Cl)cc1 (stereo not shown)	A′ (A′ = ≥10X)	1000 to 10000	B′ (B′ = ≥5X to <10X)	1000 to 10000
O=C1OC(CO)CN1c1ccc(OCc2c(Cl)cc(F)cc2Cl)cc1 (stereo not shown)	B′ (B′ = ≥5X to <10X)	> 10000	B′ (B′ = ≥5X to <10X)	> 10000
O=C1OC(CO)CN1c1ncc(OCc2c(Cl)cccc2C(F)(F)F)cn1 (stereo not shown)	A′ (A′ = ≥10X)	1000 to 10000	A′ (A′ = ≥10X)	1000 to 10000
O=C1OC(CO)CN1c1ccc(OCc2c(Cl)cccc2C(F)(F)F)cn1 (stereo not shown)	A′ (A′ = ≥10X)	< 1000	A′ (A′ = ≥10X)	1000 to 10000
CN1C(=O)CN(c2ncc(OCc3c(Cl)cccc3C(F)(F)F)cn2)CC1CO (stereo not shown)	C′ (C′ = <5X)	< 1000	C′ (C′ = <5X)	1000 to 10000
O=C(O)C1CN(c2ccc(OCc3c(Cl)cccc3C(F)(F)F)cn2)CCO1 (stereo not shown)	C′ (C′ = <5X)	1000 to 10000	C′ (C′ = <5X)	> 10000
NC(=O)C1CN(c2ncc(OCc3c(Cl)cccc3C(F)(F)F)cn2)CC(=O)N1 (stereo not shown)	C′ (C′ = <5X)	1000 to 10000	C′ (C′ = <5X)	1000 to 10000
O=C1COC(CO)CN1c1ccc(OCc2c(Cl)cccc2C(F)(F)F)cn1 (stereo not shown)	A′ (A′ = ≥10X)	1000 to 10000	A′ (A′ = ≥10X)	1000 to 10000
Cc1cccc(C(F)(F)F)c1COc1cnc(N2CCN(C(N)=O)CC2)nc1	A′ (A′ = ≥10X)	< 1000	A′ (A′ = ≥10X)	< 1000
Clc1cccc(Cl)c1COc1cnc(N2CC3CC2CO3)nc1 (stereo not shown)	A′ (A′ = ≥10X)	1000 to 10000	A′ (A′ = ≥10X)	1000 to 10000
O=C1OCC2CN(c3ncc(OCc4c(Cl)cccc4Cl)cn3)CCN12 (stereo not shown)	A′ (A′ = ≥10X)	1000 to 10000	B′ (B′ = ≥5X to <10X)	1000 to 10000
CC(=O)NCC1CN(c2ccc(OCc3c(C)cccc3C(F)(F)F)cc2)C(=O)O1 (stereo not shown)	A′ (A′ = ≥10X)	1000 to 10000	A′ (A′ = ≥10X)	1000 to 10000
[2H]C([2H])(O)c1ncn(-c2ccc(OC([2H])([2H])c3c(Cl)cccc3C(F)(F)F)cc2)n1	C′ (C′ = <5X)	< 1000	C′ (C′ = <5X)	< 1000
Cc1ccc(C(F)(F)F)c(COc2ccc(-n3cc(CO)nn3)cc2)c1F	B′ (B′ = ≥5X to <10X)	1000 to 10000	B′ (B′ = ≥5X to <10X)	> 10000
Cc1cccc(C(F)(F)F)c1COc1ccc(-n2cnc(CO)n2)cc1	A′ (A′ = ≥10X)	< 1000	A′ (A′ = ≥10X)	< 1000
Cc1cccc(C(F)(F)F)c1COc1cnc(-n2ccc(CO)n2)nc1	A′ (A′ = ≥10X)	< 1000	A′ (A′ = ≥10X)	< 1000
OCc1cn(-c2ccc(OCc3c(Cl)cccc3C(F)(F)F)cn2)cn1	A′ (A′ = ≥10X)	< 1000	A′ (A′ = ≥10X)	1000 to 10000
OCc1cn(-c2ncc(OCc3c(Cl)cccc3C(F)(F)F)cn2)cn1	C′ (C′ = <5X)	< 1000	C′ (C′ = <5X)	< 1000

SMILES	CFTR G542X ACTIVITY Fold 10 μM G-418 [1]	EC50 [1] [nM]	CFTR R1162X ACTIVITY Fold 10 μM G-418 [2]	EC50 [2] [nM]
OCc1cn(-c2ncc(OCc3c(Cl)cccc3C(F)(F)F)cn2)nn1	A′ (A′ = ≥10X)	1000 to 10000	A′ (A′ = ≥10X)	1000 to 10000
Cc1cccc(C(F)(F)F)c1COc1cnc(-n2cc(CO)nn2)nc1	A′ (A′ = ≥10X)	1000 to 10000	A′ (A′ = ≥10X)	1000 to 10000
Cc1cccc(C(F)(F)F)c1COc1cnc(-n2cnc(CO)c2)nc1	A′ (A′ = ≥10X)	< 1000	A′ (A′ = ≥10X)	< 1000
Cc1cccc(C(F)(F)F)c1COc1ccc(-n2cnc(CO)c2)nc1	A′ (A′ = ≥10X)	< 1000	A′ (A′ = ≥10X)	1000 to 10000
OCc1ncn(-c2ncc(OCc3c(Cl)cccc3Cl)cn2)n1	C′ (C′ = <5X)	1000 to 10000	C′ (C′ = <5X)	1000 to 10000
Cc1cccc(C(F)(F)F)c1COc1ccc(-n2cnc(Cn3cnc(CO)c3)c2)nc1	A′ (A′ = ≥10X)	1000 to 10000	A′ (A′ = ≥10X)	1000 to 10000
Cc1cccc(C(F)(F)F)c1COc1ccc(N2CCOC(CO)C2)cc1 (stereo not shown)	A′ (A′ = ≥10X)	< 1000	A′ (A′ = ≥10X)	1000 to 10000
OCC1CN(c2ncc(OCc3c(Cl)cccc3C(F)(F)F)cn2)CCO1 (stereo not shown)	A′ (A′ = ≥10X)	< 1000	A′ (A′ = ≥10X)	< 1000
OCC1CN(c2ccc(OCc3c(Cl)cccc3C(F)(F)F)cn2)CCO1 (stereo not shown)	A′ (A′ = ≥10X)	< 1000	A′ (A′ = ≥10X)	< 1000
OCC1CN(c2ncc(OCc3c(Cl)cccc3C3CC3)cn2)CCO1 (stereo not shown)	A′ (A′ = ≥10X)	< 1000	A′ (A′ = ≥10X)	< 1000
OCC1CN(c2ncc(OCc3c(F)cccc3C(F)(F)F)cn2)CCO1 (stereo not shown)	A′ (A′ = ≥10X)	1000 to 10000	A′ (A′ = ≥10X)	1000 to 10000
Cc1cccc(C(F)(F)F)c1COc1ccc(N2CCOC(CO)C2)nc1 (stereo not shown)	A′ (A′ = ≥10X)	1000 to 10000	A′ (A′ = ≥10X)	1000 to 10000
Cc1cccc(C(F)(F)F)c1COc1cnc(N2CCOC(CO)C2)nc1 (stereo not shown)	A′ (A′ = ≥10X)	< 1000	A′ (A′ = ≥10X)	< 1000
CCc1cccc(C(F)(F)F)c1COc1ccc(N2C[C@@H](CO)NC2=O)nc1	C′ (C′ = <5X)	< 1000	C′ (C′ = <5X)	< 1000
OCc1nnc(-c2ccc(OCc3c(Cl)cccc3C(F)(F)F)cn2)o1	C′ (C′ = <5X)	< 1000	C′ (C′ = <5X)	< 1000
Cc1cccc(C(F)(F)F)c1COc1ccc2nc(CO)cn2c1	A′ (A′ = ≥10X)	> 10000	A′ (A′ = ≥10X)	> 10000
OC[C@@H]1CN(c2ncc(OCc3c(Cl)cccc3C(F)(F)F)cn2)CCO1	A′ (A′ = ≥10X)	< 1000	A′ (A′ = ≥10X)	< 1000
Cc1cccc(C(F)(F)F)c1COc1cnc(N2CCO[C@H](CO)C2)nc1	A′ (A′ = ≥10X)	< 1000	A′ (A′ = ≥10X)	< 1000
